Where two headings read alike, the source gives them in different places. Where no end group is shown, it is not given here.
Assays:
Assay in all cases: Direct-binding FRET assay
[1] = target: ATF6B (Homo sapiens, UniProt Q99941); set-up: made in house; details: Kd
Method: (§1) The direct binding assay was performed manually in 384-well plates and is similar to a previously described assay. Wells were filled with 20 μL of 1 mM TCEP-HCl. A 4 μM stock of acceptor protein was made fresh in 1 mM TCEP-HCl, and 20 μL was titrated in 2-fold dilutions over the wells. […] The direct-binding FRET data were fit as previously described. Briefly, the Kd of the designed peptide homodimer was experimentally determined and used with previously determined target homodimer Kd values to determine the heterodimer Kd. The homodimer Kd values used for the human bZIPs were from; experiments done by […] et al. used the same protein constructs for the human bZIP proteins, the same buffer conditions, and the same assay. The fitting used a system of ordinary differential equations to describe the concentrations of homo and heterodimers formed by the donor (D) and acceptor (A) as a function of the heterodimer Kd. MATLAB was used to simulate the binding experiment for different Kd values, and the value that gave the best agreement between simulation and experiment was assigned. A minimum 15% change in the donor fluorescence upon titrating the acceptor peptide from 0 to 1000 nM was required for a fit to be attempted. If this minimum was not met, the interaction was classified as “NS” for no signal change. […] For such curves, we removed the first five points and re-fit the data.

[2] = target: JUN (Homo sapiens, UniProt P05412); set-up: made in house; details: Kd
Method: as §1

[3] = target: MAFG (Homo sapiens, UniProt O15525); set-up: made in house
Method: as §1

[4] = target: FOS (Homo sapiens, UniProt P01100); set-up: made in house
Method: as §1

[5] = target: T1, ATF4 (Homo sapiens, UniProt P18848); details: Kd
T1 construct: made in house
T1 sequence (P18848 278-341 limits assumed): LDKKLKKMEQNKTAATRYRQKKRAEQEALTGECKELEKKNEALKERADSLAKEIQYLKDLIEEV
Method: as §1

[6] = target: T2, CREB1 (Homo sapiens, UniProt P16220)
T2 construct: made in house
T2 sequence (P16220 269-327 limits assumed): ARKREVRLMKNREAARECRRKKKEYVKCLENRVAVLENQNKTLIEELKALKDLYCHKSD
Method: as §1

[7] = target: T3, ATF3 (Homo sapiens, UniProt P18847)
T3 construct: made in house
T3 sequence (P18847 86-149 limits assumed): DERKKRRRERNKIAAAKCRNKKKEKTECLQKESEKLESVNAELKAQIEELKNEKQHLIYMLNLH
Method: as §1

[8] = target: T4, XBP1 (Homo sapiens, UniProt P17861)
T4 construct: made in house
T4 sequence (P17861 70-133 limits assumed): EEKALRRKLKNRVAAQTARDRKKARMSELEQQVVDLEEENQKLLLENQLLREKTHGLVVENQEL
Method: as §1

[9] = target: T5, NFE2 (Homo sapiens, UniProt Q16621)
T5 construct: made in house
T5 sequence (Q16621 266-329 limits assumed): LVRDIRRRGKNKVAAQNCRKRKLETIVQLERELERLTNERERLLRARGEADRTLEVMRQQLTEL
Method: as §1

[10] = target: T6, NFE2L3 (Homo sapiens, UniProt Q9Y4A8)
T6 construct: made in house
T6 sequence (Q9Y4A8 578-641 limits assumed): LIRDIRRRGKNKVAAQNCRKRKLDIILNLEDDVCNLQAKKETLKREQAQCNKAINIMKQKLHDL
Method: as §1

[11] = target: T7, MAFF (Homo sapiens, UniProt Q9ULX9)
T7 construct: made in house
T7 sequence (Q9ULX9 51-114 limits assumed): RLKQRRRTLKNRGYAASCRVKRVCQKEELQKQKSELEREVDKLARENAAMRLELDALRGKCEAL
Method: as §1

[12] = 4°C, C-terminal fluorescein design as donor, TAMRA target titrated
[13] = 4°C, C-terminal rhodamine design, repeat 1
[14] = 4°C, N-terminal rhodamine design, mean or single
[15] = 23°C, C-terminal fluorescein design as donor, TAMRA target titrated
[16] = 23°C, C-terminal rhodamine design, repeat 1
[17] = 23°C, N-terminal rhodamine design, mean or single
[18] = 37°C, C-terminal fluorescein design as donor, TAMRA target titrated
[19] = 37°C, N-terminal rhodamine design, mean or single

Measured: Kd

Chain of MAFG (O15525 51-114 limits assumed): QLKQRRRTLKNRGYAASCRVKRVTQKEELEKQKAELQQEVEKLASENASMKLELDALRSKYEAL
Chain of ATF6B (Q99941 325-388 limits assumed): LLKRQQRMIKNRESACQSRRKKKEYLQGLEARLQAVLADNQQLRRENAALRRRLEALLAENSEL
Chain of FOS (P01100 137-200 limits assumed): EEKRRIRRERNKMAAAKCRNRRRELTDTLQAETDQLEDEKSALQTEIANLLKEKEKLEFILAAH

SIAATLEKEEANLEKMNKKLAAEIESLLKEKDKLESVLNYHE [JUN-d1]
0.543 µM: [5]; 37°C, C-terminal rhodamine design, mean or single
0.0161 µM: [2]; [18]
> 1 µM: [1]; [13] | [1]; [14] | [1]; [15] | [1]; [16] | [1]; [17] | [1]; [18] | [1]; 37°C, C-terminal rhodamine design, repeat 1 | [1]; [19] | [3] | [3]; [13] | [3]; [14] | [3]; [16] | [3]; [17] | [3]; [19] | [4] | [4]; [12] | [4]; [14] | [4]; [15] | [4]; [16] | [4]; [17] | [4]; [18] | [4]; [19] | [5]; [19] | [6] | [6]; [12] | [6]; [13] | [6]; [14] | [6]; [15] | [6]; [16] | [6]; [17] | [6]; [18] | [6]; [19] | [7] | [7]; [12] | [7]; [14] | [7]; [15] | [7]; [16] | [7]; [17] | [7]; [18] | [7]; [19] | [8] | [8]; [13] | [8]; [14] | [8]; [16] | [8]; [17] | [8]; [19] | [9] | [9]; [12] | [9]; [13] | [9]; [14] | [9]; [15] | [9]; [16] | [9]; [17] | [9]; [18] | [9]; [19] | [10] | [10]; [13] | [10]; [14] | [10]; [16] | [10]; [17] | [10]; [19] | [11] | [11]; [13] | [11]; [14] | [11]; [16] | [11]; [17] | [11]; [19]
0.441 µM: [5]; [18]
0.2 to 1 µM: [1]; [12]
0.0401 µM: [5]; [15]
0.592 µM: [5]; [14]
0.0021 µM: [2]; [12]
0.001 µM: [2]; 4°C, C-terminal rhodamine design, mean or single
> 5 µM: [5]; [17]

Reference: article PMC4335062, “Data-Driven Prediction and Design of bZIP Coiled-Coil Interactions” (PLoS Computational Biology, 2015)
